{"source": "paper PMC9060145", "about": "(Skin Health and Disease, 2021)", "key": {"CYP2C8 [1]": {"target": "T1, CYP2C8 (Homo sapiens, UniProt P10632)", "T1 sequence (P10632 1-490)": "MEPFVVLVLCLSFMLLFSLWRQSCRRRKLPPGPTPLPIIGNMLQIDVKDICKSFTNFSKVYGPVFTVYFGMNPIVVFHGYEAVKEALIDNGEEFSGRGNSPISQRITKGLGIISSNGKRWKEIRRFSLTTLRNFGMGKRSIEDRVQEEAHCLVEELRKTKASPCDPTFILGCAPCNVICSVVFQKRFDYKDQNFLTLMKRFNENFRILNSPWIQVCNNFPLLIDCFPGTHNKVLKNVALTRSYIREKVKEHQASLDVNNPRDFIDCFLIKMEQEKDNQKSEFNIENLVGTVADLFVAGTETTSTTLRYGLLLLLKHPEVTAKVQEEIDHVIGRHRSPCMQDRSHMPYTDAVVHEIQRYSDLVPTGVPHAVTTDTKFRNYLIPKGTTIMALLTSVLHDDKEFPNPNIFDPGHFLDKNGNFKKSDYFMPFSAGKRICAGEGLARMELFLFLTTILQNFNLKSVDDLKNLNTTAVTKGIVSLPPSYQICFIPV", "assay": "CYP450 inhibition assay, human liver microsomes", "format": "biochemical", "set-up": "from tissue; host or cells: human liver microsomes (per the earlier reading and the cited method)", "conditions": "substrate paclitaxel"}, "CYP2C8 [2]": {"target": "T1, CYP2C8", "assay": "Qualitative CYP2C8 screening, Vivid CYP2C8 Green kit, fluorimetry", "format": "biochemical", "set-up": "purchased Life Technologies; host or cells: Baculosomes", "conditions": "recombinant CYP2C8 Baculosomes, probe Vivid DBOMF, 1 µM (1000 nM) compound, substrate DBOMF", "description": "CYP450 inhibition assays (excluding CYP19 and 1 µM CYP2C8) were performed as previously described.[31] Substrate metabolite formation was measured by HPLC‐MS/MS. Percent of control activity was determined by comparing metabolite peak areas with and without test compound. Qualitative screening of CYP2C8 (1 µM) and CYP19 is described in detail in Supporting Information. Reference compound IC50 values were determined by non‐linear regression analysis using Hill equation curve fitting.\nA kinetic reaction was carried out for CYP2C8 screening in triplicate according to the Vivid? CYP450 Screening Kit manual protocol (MAN0003095). Briefly, a master pre-mix composed of CYP2C8 Baculosomes®, regeneration system of human P450 reductase/human cytochrome b5, and reaction buffer was prepared before adding 50 µL to each well in a black 96-well plate. Test compounds, positive inhibition control, and solvent controls were prepared as a 2.5X concentration with DMSO in reaction buffer of which 40 µL was dispensed into the 96-well plate. […] The test samples were pre-incubated at 37 °C for 15 min in the fluorescent microplate reader before adding a 10 µL mixture of substrate and NADP^+. Immediately, the plate was read at 2 min intervals over a 30 min time period at 37 °C. The raw data in relative fluorescent units (RFU) was analyzed according to the kinetic assay mode as outlined in the published protocol."}}, "data": [{"molecule": "CC(C)(O)c1ccccc1CC[C@@H](SCC1(CC(=O)O)CC1)c1cccc(/C=C/c2ccc3ccc(Cl)cc3n2)c1", "note": "[montelukast]", "values": [{"measurement": "nH (hill coefficient)", "setting": "CYP2C8 [1]", "result": 0.6}, {"measurement": "inhibition at 30 min, 1 µM", "setting": "CYP2C8 [2]", "result": 100, "unit": "%"}]}]}
